Source: patent publication US20110015120A1, “Pharmaceutical and cosmetic compositions including lactoferrin, ciclopirox, etidronic acid” (VALETUDO S . r . l ., priority 2009, published 2011)
Values joined by “and” are separate entries in the source; they are usually repeats but may differ in a detail not shown here. Identical values can stand only once. “Also recorded” adds a separate entry of the source.

Tested on: MALASSEZIA GLOBOSA
Assay: Inhibition of Malassezia globosa growth, colony count (UFC/ml) on Dixon's Agar
Type: cell-based
Settings: for dil 10X colony count: 200 μl of suspension diluted 10X on Petri dish; for dil 10X colony count / X50 (calculation made based on the dilution): three replicates; for AVERAGE: average of three replicates; for % reduction of Malassezia globosa cells growth (% increase of antimycotic activity): compared to CICLOPIROXOLAMINE alone; for X50 (calculation made based on the dilution): dil 10X count x50
Method: To assess the capacity of the LACTOFERRIN to enhance the antimycotic action of the CIPROPIROXOLAMIN, a suspension of a MALASSEZIA GLOBOSA STRAIN is inoculated on a specific culture medium and the capacity of the compounds to inhibit the mycotic growth is observed, by counting of the UFC/ml.
As first approach, the two compounds are tested at the concentration of 1:500 and, subsequently, diluted in culture medium at 2 decreasing concentrations (10× and 100×) in order to visualize the individual activities. Then in order to evaluate the capacity of the LACTOFERRIN to increase the antimycotic effect of the CICLOPIROXOLAMIN, the same test was carried out on the mix of the two active ingredients at different ratios (1:2 and 1:5).
Each test was performed three times and the incubation times were 1 and 4 hours respectively.
Based on the results obtained, the best dilution for the execution of the tests was the 10× dilution and both the incubation times (1 hour and 4 hours) were taken into consideration since the experimental conditions permitted an accurate count to be carried out of the colonies on the Petri dishes.
The microorganism used is MALASSEZIA GLOBOSA.
The microorganisms were cultured in specific culture medium (Dixon's Agar) until reaching a concentration of approximately […] per ml. Aliquots of 1 ml of this inoculum were then taken to which were added respectively: • Ciclopiroxolamine 1:500 • Lactoferrin 1:500 • Mixture 1:2 Ciclopiroxolamine:lactoferrin • Mixture 1:5 Ciclopiroxolamine:lactoferrin
As positive control, the untreated inoculum was used (MALASSEZIA and diluting liquid), as negative controls the two active ingredients in diluting liquid.
After incubations of 1 hour and 4 hours respectively, aliquots of 200 μl of each suspension were spread on Petri dishes.
For each treatment, the test was carried out three times and for 3 different dilutions (non diluted suspension (TQ), dilution 10× and dilution 100×).
The 54 dishes obtained were then examined, after incubation of 5-6 days and the microbial load of each specimen was calculated (UFC/ml).
The % increase of the antimycotic property corresponds to the % reduction of the growth of Malassezia Globosa

Question: Which results are given for `Cc1cc(C2CCCCC2)n(O)c(=O)c1` [CICLOPIROXOLAMINE, Ciclopirox Olamine]?
Answer: reduction in the growth of Malassezia Globosa (in words) (after four hours of incubation): marked reduction; reduction in the growth of Malassezia Globosa (in words) (after one hour of incubation): marked reduction; antimycotic activity towards Malassezia Globosa (in words) (overall statement): decidedly more effective in reducing the growth compared to the LACTOFERRIN; also recorded: marked antimycotic activity; Log (AVERAGE) (period of incubation 1 hour): 3.985; dil 10X colony count (period of incubation 1 hour): 208 and 170 and 202; AVERAGE (period of incubation 1 hour): 9666.667 UFC/ml; % reduction of Malassezia globosa cells growth (% increase of antimycotic activity) (period of incubation 1 hour): 0%; X50 (calculation made based on the dilution) (period of incubation 1 hour): 10400 UFC/ml and 8500 UFC/ml and 10100 UFC/ml; Log (AVERAGE) (period of incubation 4 hour): 3.209; dil 10X colony count (period of incubation 4 hour): 38 and 34 and 25; AVERAGE (period of incubation 4 hour): 1616.667 UFC/ml; % reduction of Malassezia globosa cells growth (% increase of antimycotic activity) (period of incubation 4 hour): 0%; X50 (calculation made based on the dilution) (period of incubation 4 hour): 1900 UFC/ml and 1700 UFC/ml and 1250 UFC/ml
